Where only a bound is given, the exact number is not on record here.

The test relates to C666-1 cells. The experiment in a line: C666-1 cell viability single concentration (50 μM) inhibition rate (Resazurin). Format: cell-based. The note with it: Homo sapiens, C6661, 72 h, 50 μM compound, 72 hours, C666-1 cells; read-out: C666-1 cell viability single concentration (50 μM) inhibition rate, Ratio* (Inh %). The method, then:
In order to assess the effect of the EBNA1 inhibitor at the cellular level, the cell proliferation inhibition rate was tested, and the inhibition rate of inhibitor at a specific concentration on the proliferation of Epstein-Barr virus positive cell line C666-1 was detected.
In the test, 100 μL C666-1 cells were inoculated in a transparent 96-well plate, and each well contained 5×10^3 cells. After the cells were cultured in an incubator with 5% carbon dioxide at 37° C. for 24 hours, 10 μL compound at a concentration of 500 μmol/L was added into the cells, so that the final concentration of the compound was 50 μmol/L. Two replicate wells were set for each compound, the wells treated with DMSO were set as control wells (Ctrl), and the wells with cell culture medium only were set as blank wells (blank), and they were treated in the incubator with carbon dioxide at 37° C. for 72 hours. The cell viability was assessed using a redox indicator Resazurin. Specifically, 10 μL Resazurin at a concentration of 600 umol/L was added into each well, and incubated at 37° C. for 3 hours, and a Tecan microplate reader was used to detect the fluorescence signal at an excitation wavelength of 560 nm and an emission wavelength of 590 nm. The formula inh %=1−(F−Fblank)/(FCtrl−Fblank)×100% (where, F is the fluorescence intensity of the compound-added wells, FCtrl and Fblank are the readings of the control wells and blank wells, respectively) was used to calculate the inhibition rate of the compound on the proliferation of C666-1 cells, so as to assess the activity of the compound on Epstein-Barr virus positive cells.
On the technique in general: Resazurin is reduced to fluorescent resorufin, in cell work by metabolically active cells.
`COc1ccc(C(OC(C)=O)C23CC(c4cccc(C(=O)O)c4)(C2)C3)cc1` (stereo not shown) [Compound 1, 3-(3-(acetoxyl(4-methoxyphenyl)methyl)bicyclo[1. 1.1]pentan-1-yl)benzoic acid]: the inhibition at 50 µM is less than 10%.

For the compound `CC(=O)OC(c1ccc(C(F)(F)F)nc1)C12CC(c3cccc(C(=O)O)c3)(C1)C2` (stereo not shown) [Compound 2, 3-(3-(acetoxyl(6-(trifluoromethyl)pyridin-3-yl)methyl)bicyclo[1.1.1]pentan-1-yl)benzoic acid], the inhibition at 50 µM was less than 10%.

Regarding `O=C(O)c1cccc(C23CC(C(O)c4ccc(C(F)(F)F)nc4)(C2)C3)c1` (stereo not shown) [Compound 3, 3-(3-(hydroxyl(6-(trifluoromethyl)pyridin-3-yl)methyl)bicyclo[1.1.1]pentan-1-yl)benzoic acid], the inhibition at 50 µM was less than 10%.

Regarding `O=C(O)c1cccc(C23CC(c4ccccc4)(C2)C3)c1` [Compound 4, 3-(3-phenylbicyclo[1.1.1]pentan-1-yl)benzoic acid], the inhibition at 50 µM is less than 10%.

Turning to `COC(=O)c1cccc(C23CC(c4ccccc4)(C2)C3)c1-n1cccc1` [Compound 5, Methyl 3-(3-phenylbicyclo[1.1.1]pentan-1-yl)-2-(1H-pyrrol-1-yl)benzoate], the inhibition at 50 µM is less than 10%.

With `O=C(O)c1cccc(C23CC(c4ccccc4)(C2)C3)c1-n1cccc1` [Compound 6, 3-(3-phenylbicyclo[1.1.1]pentan-1-yl)-2-(1H-pyrrol-1-yl)benzoic acid], the inhibition at 50 µM is less than 10%.

Regarding `COC(=O)c1cccc(C23CC(c4ccc(OC)cc4)(C2)C3)c1-n1cccc1` [Compound 7, Methyl 3-(3-(4-methoxyphenyl)bicyclo[1.1.1]pentan-1-yl)-2-(1H-pyrrol-1-yl)benzoate], the inhibition at 50 µM was less than 10%.

As to `COc1ccc(C23CC(c4cccc(C(=O)O)c4-n4cccc4)(C2)C3)cc1` [Compound 8, 3-(3-(4-methoxyphenyl)bicyclo[1.1.1]pentan-1-yl)-2-(1H-pyrrol-1-yl)benzoic acid], the inhibition at 50 µM was less than 10%.

Consider `COC(=O)c1cccc(N2CC3(CN(c4ccccc4)C3)C2)c1N` [Compound 9, Methyl 2-amino-3-(6-phenyl-2,6-diazaspiro[3.3]heptan-2-yl)benzoate], for which the inhibition at 50 µM is 10 to 30%.

Turning to `Nc1c(C(=O)O)cccc1N1CC2(CN(c3ccccc3)C2)C1` [Compound 10, 2-amino-3-(6-phenyl-2,6-diazaspiro[3.3]heptan-2-yl)benzoic acid], the inhibition at 50 µM was less than 10%.

Regarding `O=C(O)c1cccc(N2CC3(CN(c4ccccc4)C3)C2)c1-n1cccc1` [Compound 11, 3-(6-phenyl-2,6-diazaspiro[3.3]heptan-2-yl)-2-(1H-pyrrol-1-yl)benzoic acid], the inhibition at 50 µM is less than 10%.

As for `Nc1ccccc1N1CC2(C1)CN(c1cccc(C(=O)O)c1N)C2` [Compound 12, 2-amino-3-(6-(2-aminophenyl)-2,6-diazaspiro[3.3]heptan-2-yl)benzoic acid], the inhibition at 50 µM was less than 10%.

Take `COC(=O)c1cccc(N2CC3(CN(c4ccc(N)cc4)C3)C2)c1N` [Compound 13, Methyl 2-amino-3-(6-(4-aminophenyl)-2,6-diazaspiro[3.3]heptan-2-yl)benzoate]: the inhibition at 50 µM was greater than 50%.

As for `Nc1ccc(N2CC3(C2)CN(c2cccc(C(=O)O)c2N)C3)cc1` [Compound 14, 2-amino-3-(6-(4-aminophenyl)-2,6-diazaspiro[3.3]heptan-2-yl)benzoic acid], the inhibition at 50 µM was less than 10%.

For the compound `COC(=O)c1cccc(N2CC3(C2)CN(c2cccc(C(=O)OC)c2N)C3)c1` [Compound 15, Methyl 2-amino-3-(6-(3-(methoxycarbonyl)phenyl)-2,6-diazaspiro[3.3]heptan-2-yl)benzoate], the inhibition at 50 µM is less than 10%.

Take `Nc1c(C(=O)O)cccc1N1CC2(CN(c3cccc(C(=O)O)c3)C2)C1` [Compound 16, 2-amino-3-(6-(3-carboxylphenyl)-2,6-diazaspiro[3.3]heptan-2-yl)benzoic acid]: the inhibition at 50 µM was less than 10%.

In the case of `COC(=O)c1cccc(N2CC3(C2)CN(c2cccc(C(=O)OC)c2-n2cccc2)C3)c1` [Compound 17, Methyl 3-(6-(3-(methoxycarbonyl)phenyl)-2,6-diazaspiro[3.3]heptan-2-yl)-2-(1H-pyrrol-1-yl)benzoate], the inhibition at 50 µM fell in the range of 10 to 30%.

Consider `O=C(O)c1cccc(N2CC3(C2)CN(c2cccc(C(=O)O)c2-n2cccc2)C3)c1` [Compound 18, 3-(6-(3-carboxylphenyl)-2,6-diazaspiro[3.3]heptan-2-yl)-2-(1H-pyrrol-1-yl)benzoic acid], for which the inhibition at 50 µM was less than 10%.

In the case of `COC(=O)c1cccc(N2CC3(CN(c4ccccc4N)C3)C2)c1-n1cccc1` [Compound 19, Methyl 3-(6-(2-aminophenyl)-2,6-diazaspiro[3.3]heptan-2-yl)-2-(1H-pyrrol-1-yl)benzoate], the inhibition at 50 µM was greater than 50%.

For `Nc1ccccc1N1CC2(C1)CN(c1cccc(C(=O)O)c1-n1cccc1)C2` [Compound 20, 3-(6-(2-aminophenyl)-2,6-diazaspiro[3.3]heptan-2-yl)-2-(1H-pyrrol-1-yl)benzoic acid], the inhibition at 50 µM is less than 10%.

Turning to `COC(=O)c1cccc(N2CC3(CN(c4ccccc4[N+](=O)[O-])C3)C2)c1-n1cccc1` [Compound 21, Methyl 3-(6-(2-nitrophenyl)-2,6-diazaspiro[3.3]heptan-2-yl)-2-(1H-pyrrol-1-yl)benzoate], the inhibition at 50 µM was 10 to 30%.

Consider `O=C(O)c1cccc(N2CC3(CN(c4ccccc4[N+](=O)[O-])C3)C2)c1-n1cccc1` [Compound 22, 3-(6-(2-nitrophenyl)-2,6-diazaspiro[3.3]heptan-2-yl)-2-(1H-pyrrol-1-yl)benzoic acid], for which the inhibition at 50 µM is less than 10%.

As to `COC(=O)c1ccc(N2CC3(C2)CN(c2cccc(C(=O)OC)c2-n2cccc2)C3)cc1` [Compound 23, Methyl 3-(6-(4-(methoxycarbonyl)phenyl)-2,6-diazaspiro[3.3]heptan-2-yl)-2-(1H-pyrrol-1-yl)benzoate], the inhibition at 50 µM was less than 10%.

With `O=C(O)c1ccc(N2CC3(C2)CN(c2cccc(C(=O)O)c2-n2cccc2)C3)cc1` [Compound 24, 3-(6-(4-carboxylphenyl)-2,6-diazaspiro[3.3]heptan-2-yl)-2-(1H-pyrrol-1-yl)benzoic acid], the inhibition at 50 µM is less than 10%.

With `COC(=O)c1cccc(N2CC3(CN(c4cccc([N+](=O)[O-])c4)C3)C2)c1[N+](=O)[O-]` [Compound 25, Methyl 3-(6-(3-nitrophenyl)-2,6-diazaspiro[3.3]heptan-2-yl)-2-nitrobenzoate], the inhibition at 50 µM was 10 to 30%.

In the case of `O=C(O)c1cccc(N2CC3(CN(c4cccc([N+](=O)[O-])c4)C3)C2)c1[N+](=O)[O-]` [Compound 26, 3-(6-(3-nitrophenyl)-2,6-diazaspiro[3.3]heptan-2-yl)-2-nitrobenzoic acid], the inhibition at 50 µM was less than 10%.

On to `COC(=O)c1cccc(N2CC3(CN(c4cccc(NS(C)(=O)=O)c4)C3)C2)c1[N+](=O)[O-]` [Compound 27, Methyl 3-(6-(3-(methylsulfonamido)phenyl)-2,6-diazaspiro[3.3]heptan-2-yl)-2-nitrobenzoate], for which the inhibition at 50 µM was less than 10%.

With `CS(=O)(=O)Nc1cccc(N2CC3(C2)CN(c2cccc(C(=O)O)c2[N+](=O)[O-])C3)c1` [Compound 28, 3-(6-(3-(methylsulfonamido)phenyl)-2,6-diazaspiro[3.3]heptan-2-yl)-2-nitrobenzoic acid], the inhibition at 50 µM is less than 10%.

For the compound `COC(=O)c1cccc(N2CC3(CN(c4cccc(NC(C)=O)c4)C3)C2)c1N` [Compound 29, Methyl 3-(6-(3-acetylaminophenyl)-2,6-diazaspiro[3.3]heptan-2-yl)-2-aminobenzoate], the inhibition at 50 µM lay in the range of 10 to 30%.

With `CC(=O)Nc1cccc(N2CC3(C2)CN(c2cccc(C(=O)O)c2N)C3)c1` [Compound 30, 3-(6-(3-acetylaminophenyl)-2,6-diazaspiro[3.3]heptan-2-yl)-2-aminobenzoic acid], the inhibition at 50 µM is less than 10%.

`COC(=O)c1cccc(N2CC3(CN(c4cccc(NS(=O)(=O)C5CC5)c4)C3)C2)c1N` [Compound 31, Methyl 2-amino-3-(6-(3-(cyclopropylsulfonamido)phenyl)-2,6-diazaspiro[3.3]heptan-2-yl)benzoate]: the inhibition at 50 µM was in the range of 10 to 30%.

On to `Nc1c(C(=O)O)cccc1N1CC2(CN(c3cccc(NS(=O)(=O)C4CC4)c3)C2)C1` [Compound 32, 2-amino-3-(6-(3-(cyclopropylsulfonamido)phenyl)-2,6-diazaspiro[3.3]heptan-2-yl)benzoic acid], for which the inhibition at 50 µM was less than 10%.

With `COC(=O)c1cccc(N2CC3(CN(c4cccc(N)c4)C3)C2)c1N` [Compound 33, Methyl 2-amino-3-(6-(3-aminophenyl)-2,6-diazaspiro[3.3]heptan-2-yl)benzoate], the inhibition at 50 µM fell in the range of 10 to 30%.

With `Nc1cccc(N2CC3(C2)CN(c2cccc(C(=O)O)c2N)C3)c1` [Compound 34, 2-amino-3-(6-(3aminophenyl)-2,6-diazaspiro[3.3]heptan-2-yl)benzoic acid], the inhibition at 50 µM was less than 10%.

The values are drawn from US20230157996A1, “SMALL-MOLECULE INHIBITOR TARGETING EB VIRUS NUCLEAR ANTIGEN PROTEIN, PREPARATION METHOD AND USE THEREOF” (priority 2020, published 2023).
